In patent US20220226484A1, “THERAPEUTIC PEPTIDES” (COHBAR, INC., priority 2019, published 2022):
Positions of bridges follow the written chain, without caps; N, C: chain ends. Non-standard residues stand in square brackets, D forms with d. Primed or numbered codes have the meaning given here. Chains are numbered I, II in the order given. No end group written: not given here. PEG12′ = not defined here

Experiments:
[1] = test system: A172 human brain glioblastoma cell line; assay: Caspase 3/7 activity (Caspase-Glo 3/7 Assay); format: cell-based; conditions: peptide 10 μM, 18-20 hours, relative to 0.1% DMSO control
Experimental: The effect of the peptides on cell death/survival can be assessed using a caspase-3/7 assay in cultured cells. Peptides were dissolved at 10 mM in DMSO as stock solutions for use at a final concentration of 10 μM. […] Caspase-Glo 3/7 Assay Reagent was purchased from Promega (Madison, Wis.). A172 human brain glioblastoma cell line was purchased from American Type Culture Collection (Manassas, Va.). A172 cells were grown in DMEM supplemented with 10% FBS with 100 IU/ml penicillin and 100 μg/ml streptomycin. Cultures were maintained at 37° C. in a humidified atmosphere of 5% CO2/95% air. A172 cells were seeded at 8,000 cells per well on 96-well plates. […] Caspase 3/7 activity was determined using a Caspase-Glo 3/7 Assay kit (Promega) according to the manufacturer's instructions. Luminescence for each sample well on the plate was measured using a Cytation 3 plate reader (BioTek, Winooski, Vt.). Activity was calculated relative to 0.1% DMSO control.

C2C12 Mouse Myoblasts = assay: Glucose utilization; format: cell-based; conditions: peptide 10 μM, 18-22 hours, relative to 0.1% DMSO treated control
Experimental: The effect of the peptides on glucose metabolism can be assessed using an assay of glucose utilization in cultured cultured cells such as mouse myoblasts. Peptides were initially prepared as 10 mM stock in DMSO and used at a final concentration of 10 μM (0.1% DMSO). C2C12 mouse myoblast cell line was purchased from American Type Culture Collection (Manassas, Va.). C2C12 cultures were maintained at 37° C. in a humidified atmosphere of 5% CO2/95% air with medium changes every second day. C2C12 cells were grown in DMEM (1 g/L glucose) supplemented with 10% FBS with 100 IU/ml penicillin and 100 μg/ml streptomycin. C2C12 cells were seeded at 7,000 cells per well on 96-well plates and cultured to confluence. Once the cell reached confluence the media was changed to DMEM (1 g/L glucose) supplemented with 2% HS with 100 IU/ml penicillin and 100 μg/ml streptomycin and maintained at 37° C. in a humidified atmosphere of 5% CO2/95% air. 5 days post-induction of differentiation fresh DMEM (1 g/L glucose) supplemented with 2% HS with 100 IU/ml penicillin and 100 μg/ml streptomycin was added to cultures. Cells were maintained at 37° C. in a humidified atmosphere of 5% CO2 and 95% air for 5 hours. After 5 hours test peptides at 10 μM or controls (0.5 mM or 1 mM metformin in 1% DMSO) prepared in fresh differentiation medium were added to cells and the cultures were maintained at 37° C. in a humidified atmosphere of 5% CO2/95% air for 18-22 hours. At the end of the incubation culture media was removed from the cells and the remaining glucose concentration was measured using a Glucose Assay kit (Abcam) according to the manufacturer's instructions, using a Cytation 3 plate reader at 570 nm (BioTek, Winooski, Vt.). Glucose concentrations in the medium were calculated relative to 0.1% DMSO treated control cells. The relative standard deviation of the result for the 0.1% DMSO treated control was <20%. Metformin was used as a positive control for reduction of glucose levels (increased glucose utilization glucose levels for treatment with metformin (1 mM) treatment were <20% of the 0.1% DMSO treated control value. The results are reported in Table 7.

[2] = test system: SH-SY5Y Neuroblastoma Cells; assay: ATP levels (CellTiter-Glo); format: cell-based, human; conditions: peptide 10 μM, 18-20 hours, relative to 0.1% DMSO treated control
Experimental: The effect of the peptides on cellular metabolism can be assessed using an assay of ATP levels in cultured cells such as human neuroblastoma cells. Peptides were initially prepared as 10 mM stock in DMSO and used at a final concentration of 10 μM (0.1% DMSO). […] CellTiter-Glo® Assay kit was purchased from Promega. SH-SY5Y human bone marrow neuroblastoma cell line was purchased from American Type Culture Collection (Manassas, Va.) and licensed from Memorial Sloan-Kettering Cancer Center (New York, N.Y.). SH-SY5Y cells were grown in DMEM/F12 medium supplemented with 10% FBS with 100 IU/ml penicillin and 100 μg/ml streptomycin. Cultures were maintained at 37° C. in a humidified atmosphere of 5% CO2/95% air. SH-SY5Y cells were seeded at 30,000 cells per well on 96-well plates. […] ATP levels were determined using a CellTiter-Glo Assay kit (Promega) according to the manufacturer's instructions. Luminescence for each sample well on the plate was measured using a Cytation 3 plate reader (BioTek, Winooski, Vt.). Activity was calculated relative to 0.1% DMSO treated control. The relative standard deviation of the result for the 0.1% DMSO treated control was <5%.

[3] = test system: Rat primary cortical neurons; assay: Neuroprotection against Aβ (1-42) toxicity in cultured neurons; format: cell-based; conditions: 24 hours
Experimental: Rat primary cortical neurons were collected and cultured by methods well known in the art (Singer et al., 1999 and Callizot et al., 2013). The cells were seeded at a density of 25,000 per well in 96-well plates precoated with poly-L-lysine and cultured at 37° C. in an air (95%)-CO2 (5%) incubator. The medium was changed every 2 days. The cortical neurons were treated after 11 days of culture. The A13(1-42) was prepared using the procedure described by Callizot et al., 2013 to ensure monomeric peptide. Compounds and the positive control, BDNF (50 ng/ml), were dissolved in culture medium and then pre-incubated with primary cortical neurons for 1 hour before addition of A13(1-42) (20 μM). After 24 hours of treatment, the cell culture supernatant was removed and the cortical neurons were fixed by a cold solution of ethanol (95%) and acetic acid (5%) for 5 min at −20° C. After permeabilization with 0.1% of saponin, cells were incubated for 2 hours with mouse monoclonal antibody anti-microtubule-associated-protein 2 (MAP-2) at a dilution of 1/400 in PBS containing 1% fetal calf serum and 0.1% of saponin to stain cell bodies and neurites.
This antibody was detected with Alexa Fluor 488 goat anti-mouse IgG at the dilution 1/400 in PBS containing 1% FCS, 0.1% saponin, for 1 hour at room temperature. For each condition, images were obtained using ImageXpress (Molecular Devices) with 20× magnification. The total number of cells and extent of neurite network was determined using Custom Module Editor (Molecular Devices).

[4] = test system: WI-38 cells (human fetal lung fibroblast cells); assay: Fibroblast-to-myofibroblast transition assay, pro-collagen I alpha 1 expression; format: cell-based; conditions: 10 μM peptide and 5 ng/ml TGF-β, 48 h, cell lysates
Experimental: The effect of the peptides on fibrosis can be assessed in vitro using a fibroblast-to-myofibroblast transition (FMT) assay and monitoring pro-collagen I alpha 1 expression produced by cultured cells such as human fetal lung fibroblast cells. Peptides were initially prepared as 10 mM stock solutions in DMSO or 1 mM stock in H2O and were used at a final concentration of 10 μM (0-0.1% DMSO). Transforming Growth Factor beta (TGF-β) was used as a potent inducer of FMT as measured by increased pro-collagen I alpha 1 expression. Human WI-38 cell line was purchased from American Type Culture Collection (Manassas, Va.). WI-38 cells were seeded in complete medium (DMEM/high glucose (4 g/L)+10% Fetal Bovine Serum+1% penicillin/streptomycin) at 40,000 cells/well on 48-well plates and placed at 37° C. in a humidified atmosphere of 5% CO2/95% air. The next day, the medium was removed, cells were rinsed twice with HBSS, and the medium replaced with Serum Restricted Medium (DMEM/high glucose (4 g/L)+0.2% Fetal Bovine Serum+1% penicillin/streptomycin). The cultures were placed at 37° C. in a humidified atmosphere of 5% CO2/95% air overnight. Following 24 h in Serum Restricted Medium, the medium was removed, and the following was added: fresh Serum Restricted Medium alone (no TGF-β control); fresh Serum Restricted Medium containing 5 ng/ml TGF-β (TGF-β control); or fresh Serum Restricted Medium containing 10 μM peptide and 5 ng/ml TGF-β. Cells were incubated for 48 h at 37° C. in a humidified atmosphere of 5% CO2/95% air, washed twice with cold HBSS and immediately lysed. Lysis and determination of pro-collagen I alpha 1 concentrations in the cell lysates were performed using a Pro-Collagen I Alpha 1 ELISA kit (Abcam; Cambridge, Mass.) according to the manufacturer's instructions; absorbance was measured using a Cytation 3 plate reader at 450 nm (BioTek, Winooski, Vt.).

Substance | Caspase 3/7 Activity, Percent of Control Activity [1] | Glucose Utilization (glucose in medium), Percent of Untreated Control (C2C12 Mouse Myoblasts) | ATP Levels, % Control [2] | Percent Protection of Neuronal Network ([3]; Aβ (1-42) 20 μM + peptide 100 nM) | Percent Protection of Neuronal Network ([3]; Aβ (1-42) 20 μM + peptide 10 uM) | Procollagen I Alpha 1 Mean (SEM) [4]
MRVIRMCLGVGLLGDLAG [SEQ ID NO: 2] | 109.3% | 110.9% | 99.6% |  |  | 
RVIRMCLGVGLLGDL(dA)G (RVIRMCLGVGLLGDL[dA]G) [SEQ ID NO: 4] | 112.4% | 107.3% | 104.7% |  |  | 
RVIRMCLGVGLLGDLAG [SEQ ID NO: 3] | 109.4% | 108.0% | 101.5% | 80% | 81% | 
RVIRMCLGVGLLGDLAGK{PEG12} (chain 1 RVIRMCLGVGLLGDLAGK(PEG12′); chain 2 RVIRMCLGVGLLGDLAGK(PEG12′); disulfide I:6-II:6) [SEQ ID NO: 28] |  |  |  |  |  | 1830 (507) pg/mL
RVIRMCLNVGLLGEL(dA)G [SEQ ID NO: 5] (RVIRMCLNVGLLGEL[dA]G) | 107.0% | 111.2% | 100.8% |  |  | 4200 (597) pg/mL
RVIRMCLNVGNLGEL(dA)G (RVIRMCLNVGNLGEL[dA]G) [SEQ ID NO: 10] |  |  |  |  |  | 4460 (235) pg/mL
